From PMC8556085, “Antimicrobial and Antioxidant Secondary Metabolites from Trifolium baccarinii Chiov. (Fabaceae) and Their Mechanisms of Antibacterial Action” (BioMed Research International, 2021)
≈ marks a conversion by molar mass, not a printed value. Marks after values point to notes of the source that are not given here.

Tests used:
[1] = system: Candida albicans ATCC10231; assay: Broth microdilution MIC/MMC; assay type: cell-based
Procedure: (§1) The antimicrobial activity was performed against five bacterial and two fungal species. The selected microorganisms were the Gram-positive (Staphylococcus aureus ATCC25923, methicillin-resistant Staphylococcus aureus 03 (MRSA03), and methicillin-resistant Staphylococcus aureus 04 (MRSA04)) and Gram-negative (Pseudomonas aeruginosa ATCC27853 and Escherichia coli S2(1)) bacteria and yeast strains of Candida albicans ATCC10231 and Cryptococcus neoformans H99. These microorganisms were taken from our laboratory collection. The fungal and bacterial strains were conserved on Sabouraud Dextrose Agar (SDA, Conda, Madrid, Spain) and nutrient agar (NA, Conda) slants, respectively.
(§2) The antimicrobial activity was investigated by determining the minimum inhibitory concentrations (MICs), minimum bactericidal concentrations (MBC), and minimum fungicidal concentrations (MFCs). MICs of extracts/compounds were monitored using the broth microdilution method. Dimethyl sulfoxide (DMSO, Fisher Chemicals) was used to dissolve the test sample to produce a stock solution that was twofold serially diluted in Mueller-Hinton broth (MHB) for bacteria and Sabouraud Dextrose Broth (SDB) for fungi to obtain a concentration range of 4096 to 0.25 μg/mL. One hundred microliters of each concentration was introduced into a well (96-well microplate) containing 90 μL of SDB or MHB and 10 μL of inoculum (at 1 × 10^6 CFU/mL for bacteria and 1 × 10^5 spores/mL for yeasts) which were added to obtain a final concentration range of 2048 to 0.125 μg/mL. Plates were covered and incubated on the shaker at 37°C, 30°C, and 30°C during 24 h, 48 h, and 72 h for bacteria, Candida albicans, and Cryptococcus neoformans, respectively. The MICs were visually assessed after the incubation period and were considered the lowest sample concentration that inhibits the growth or the visual growth of the organism.
(§3) The positive controls were oxacillin (Sigma-Aldrich, Steinheim, Germany) for bacteria and nystatin (Sigma-Aldrich, Steinheim, Germany) for yeasts, and the negative control was broth with 20 μL of DMSO. The assay was carried out in triplicate.

[2] = system: Cryptococcus neoformans H99; assay: Broth microdilution MIC/MMC; assay type: cell-based
Procedure: as §1, §2, §3

[3] = system: Escherichia coli S2(1); assay: Broth microdilution MIC/MMC; assay type: cell-based
Procedure: as §1, §2, §3

[4] = system: Pseudomonas aeruginosa ATCC27853; assay: Broth microdilution MIC/MMC; assay type: cell-based
Procedure: as §1, §2, §3

[5] = system: Staphylococcus aureus ATCC25923; assay: Broth microdilution MIC/MMC; assay type: cell-based
Procedure: as §1, §2, §3

[6] = system: methicillin-resistant Staphylococcus aureus 03 (MRSA03); assay: Broth microdilution MIC/MMC; assay type: cell-based
Procedure: as §1, §2, §3

[7] = system: methicillin-resistant Staphylococcus aureus 04 (MRSA04); assay: Broth microdilution MIC/MMC; assay type: cell-based
Procedure: as §1, §2, §3

[8] = system: tested bacteria and yeasts; assay: Broth microdilution MIC/MMC, summary over all strains; assay type: cell-based
Procedure: as §1, §2, §3

[9] = DPPH free radical scavenging assay; settings: mean ± SD
Procedure: The free radical scavenging activity of extracts and compounds was evaluated according to the described method. The EC50 (μg/mL), which is the amount of sample necessary to inhibit by 50% the absorbance of free radical DPPH, was calculated. Vitamin C was used as a standard control. All the analyses were carried out in triplicate and repeated three times.

[10] = Gallic acid equivalent antioxidant capacity (GEAC) assay; settings: ABTS radical, 420 nm, 240 s; mean ± SD
Procedure: The GEAC test was performed as described previously with some slight modifications. The laccase was purified from Sclerotinia sclerotiorum according to the described protocol. 20 μL of laccase (1 mM stock solution), 20 μL of test sample, 10 μL of ABTS (2,2′-azino-bis(3-ethylbenzothiazoline-6-sulfonic acid) (74 mM stock solution), and 950 μL of acetate buffer (pH = 5.0, 100 mM) were added in a quartz cuvette. The concentrations of the samples in the assay mixture were 800, 400, 200, 100, and 10 μg/mL for the extracts and 200, 100, 50, 25, and 12.5 μg/mL for the isolated compounds. The content of the generated ABTS^●+ radical was measured at 420 nm after 240 s reaction time and was converted to gallic acid equivalents by the use of a calibration curve (Pearson's correlation coefficient: r = 0.998) constructed with 0, 4, 10, 14, 28, 56, and 84 μM gallic acid standards rather than Trolox. Experiments were done in triplicate and repeated three times with similar results.

[11] = system: Gram-positive (S. aureus, S. epidermidis) and Gram-negative (P. aeruginosa) bacteria; set-up: method as in PMID 26887239; settings: cited from earlier work
[12] = system: yeasts (C. albicans, C. tropicalis, and C. neoformans); set-up: method as in PMID 26887239; settings: cited from earlier work
[13] = set-up: method as in doi:10.22159/ijpps.2017v9i2.13964; settings: cited from earlier work
[14] = set-up: method as in doi:10.22159/ijpps.2017v9i2.13964; settings: cited from earlier work; remark: listed apart in the source
[15] = set-up: method as in doi:10.22159/ijpps.2017v9i2.13964; settings: cited from earlier work; remark: listed apart in the source
[16] = set-up: method as in doi:10.22159/ijpps.2017v9i2.13964; settings: cited from earlier work; remark: listed apart in the source
[17] = set-up: method as in doi:10.22159/ijpps.2017v9i2.13964; settings: cited from earlier work; remark: listed apart in the source
[18] = Pseudomonas aeruginosa ATCC27853
[19] = Staphylococcus aureus ATCC25923

SMILES: COc1ccc(-c2coc3cc(O)ccc3c2=O)cc1 [compound 2, formononetin]
- MFC ([1]; Candida albicans ATCC10231): 128 µg/mL (≈ 477 µM)
- MMC/MIC ([1]; Candida albicans ATCC10231): 2
- MIC ([1]; Candida albicans ATCC10231, 48 h, 30°C, read-out: MIC): 64 µg/mL (≈ 239 µM)
- MFC ([2]; Cryptococcus neoformans H99): 64 µg/mL (≈ 239 µM)
- MMC/MIC ([2]; Cryptococcus neoformans H99): 1
- MIC ([2]; Cryptococcus neoformans H99, 72 h, 30°C, read-out: MIC): 64 µg/mL (≈ 239 µM)
- MBC [3]: 128 µg/mL (≈ 477 µM)
- MMC/MIC [3]: 2
- MIC ([3]; 24 h, 37°C, read-out: MIC): 64 µg/mL (≈ 239 µM)
- MBC [4, 18]: 128 µg/mL (≈ 477 µM)
- MMC/MIC [4, 18]: 1
- MIC ([4]; Pseudomonas aeruginosa ATCC27853, 24 h, 37°C, read-out: MIC): 128 µg/mL (≈ 477 µM)
- MBC [5, 19]: 128 µg/mL (≈ 477 µM)
- MMC/MIC [5, 19]: 2
- MIC ([5]; Staphylococcus aureus ATCC25923, 24 h, 37°C, read-out: MIC): 64 µg/mL (≈ 239 µM)
- MMC/MIC ([6]; MRSA03): 2
- MBC ([6]; Staphylococcus aureus, MRSA03): 256 µg/mL (≈ 954 µM)
- MIC ([6]; Staphylococcus aureus, MRSA03, 24 h, 37°C, read-out: MIC): 128 µg/mL (≈ 477 µM)
- MMC/MIC ([7]; MRSA04): 2
- MBC ([7]; Staphylococcus aureus, MRSA04): 256 µg/mL (≈ 954 µM)
- MIC ([7]; Staphylococcus aureus, MRSA04, 24 h, 37°C, read-out: MIC): 128 µg/mL (≈ 477 µM)
- antimicrobial activity class of pure compounds by cutoff points ([8]; against specific microorganism, cutoff points of ref 33): moderate/low
- MIC ([8]; read-out: MIC (range over the tested microorganisms)): 64 to 128 µg/mL (≈ 239 to 477 µM)
- DPPH free radical scavenging activity (EC50) [9]: 6.39 ± 0.62^e μg/mL
- Gallic acid equivalent antioxidant capacity (GEAC) [10]: 77.91 ± 0.59^e μg/mL
- minimum inhibitory concentration [11]: 200 µg/mL (≈ 746 µM)
- minimum inhibitory concentration [12]: 25 µg/mL (≈ 93.2 µM)
- IC50 against DPPH [13]: 4.65 µg/mL (≈ 17.3 µM)
- IC50 against hydroxyl radical [14]: 9.48 µg/mL (≈ 35.3 µM)
- IC50 against hydrogen peroxide [15]: 4.75 µg/mL (≈ 17.7 µM)
- IC50 against nitric oxide [16]: 5.0 µg/mL (≈ 18.6 µM)
- IC50 against superoxide radical [17]: 4.27 µg/mL (≈ 15.9 µM)
